PubChem BioAssay AID493130 (Broad Institute, 2011)
Inconclusive results are not listed. The source made the active and inactive calls.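 Rule for the calls: active = signal-lowering compounds whose fitted half-maximal concentration is at most ten times their highest tested dose; inconclusive = flat fit between -30 and -70%, or poor fit; inactive = flat within 30%, signal rising, or potency beyond limit.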

What follows are molecules tested against POS-1 (Caenorhabditis elegans) binding to mex-3 RNA (assay: C. elegans POS-1 RNA interaction disruptors – biochemical, fluorescence polarization, cherry-picked samples, set 2, counter-screen for MEX-5 RNA-binding inhibitor project, dose response (AID 493130;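 note: POS-1 as maltose binding protein fusion made in E. coli with FITC RNA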)). Conditions: POS-1/mex-3 RNA fluorescence polarization, 1 h.
For `O=[N+]([O-])c1ccc(NCc2ccccc2)c2nonc12`, the AC50 was 0.434 µM.
`O=C1C(Cl)=C(NC(=O)c2ccccc2)C(=O)C(Cl)=C1NC(=O)c1ccccc1` gave an AC50 of 10.2 µM.
For `COc1ccc(C2C=C(c3ccc(Br)cc3)Nc3nc(N4C(=O)CCC4=O)nn32)cc1` (stereo not drawn), the AC50 was 8.26 µM.
Work on `N=C1CCC(=N)c2c1c(O)c1ccccc1c2O` yielded an AC50 of 5.58 µM.
Molecule `Cn1c(=O)c2[nH]c(-c3ccccc3)c(O)c2n(C)c1=O` has an AC50 of 2.27 µM.
Molecule `CCN1CC=C2C(C#N)=C(N)C(C#N)(C#N)[C@H](c3ccoc3)[C@H]2C1` has an AC50 of 6.73 µM.
`CCOC(=O)C1=C(CSc2nc3c(cc2C#N)CN(C)CC3)OC(N)=C(C#N)C1c1ccncc1` (stereo not drawn) was tested, and the AC50 was 7.33 µM.
For `Nc1ccc(N(CCO)CCO)cc1`, the AC50 was 6.49 µM.
With `CC1CC(=O)c2c(cc3c(-c4c(O)cc(O)c5c(O)c6c(cc45)OC(C)CC6=O)c(O)cc(O)c3c2O)O1` (stereo not drawn) the AC50 was 8.29 µM.
`Cc1cc(O)c(-c2cc(O)c(C)cc2O)cc1O` showed an AC50 of 10.1 µM.
For `CCN1/C(=C2\SC(=S)N(Cc3ccccc3)C2=O)Sc2ccccc21`, the AC50 was 1.6 µM.
In the case of `O=C1N=c2ccccc2=C1c1sc(=S)n(NC(=O)c2ccccc2)c1O`, the AC50 is reported as 8.56 µM.
Molecule `O=[N+]([O-])c1cc(/C=N\Nc2nccs2)ccc1O` has an AC50 of 2.55 µM.
Molecule `O=C1CCNc2ccc(-c3ccccc3)cc21` has an AC50 of 1.34 µM.

Same assay, conditions: POS-1/mex-3 RNA fluorescence polarization, 1 h; at 10 µM (top of the series)
In the case of `Cc1nc2c(N=Nc3ccccc3F)c(N)nn2c(N)c1C#N`, the “activity change, negative = inhibition” value is reported as “inactive”.
`CC/C(=N/Nc1cccc(C)c1)c1cnnc(SC)n1` was tested, and the “activity change, negative = inhibition” value was “inactive”.
In the case of `CC1=C/C(=C(/c2cc(C)c(O)c(Br)c2)c2ccccc2S(=O)(=O)O)C=C(Br)C1=O`, the “activity change, negative = inhibition” value is reported as “inactive”.
In the case of `c1cncc(C2CC(c3cccs3)n3ncnc3N2)c1` (stereo not drawn), the “activity change, negative = inhibition” value is reported as “inactive”.
With `CCn1c(C)nc2c1C(=O)c1ccccc1C2=O` the “activity change, negative = inhibition” value was “inactive”.
`O=C(C1=NN(c2ccccc2)C2C(=O)N(c3ccccc3)C(=O)C12)c1ccccc1` (stereo not drawn) was tested, and the “activity change, negative = inhibition” value was “inactive”.
For `O=C1c2cccc3cccc(c23)C(=O)N1Cc1ccccc1`, the “activity change, negative = inhibition” value was “inactive”.
For `CCOc1ccc(/C=C2\SC(=S)N(Nc3ccccc3)C2=O)cc1OC`, the “activity change, negative = inhibition” value was “inactive”.
With `CC(=O)Nc1ccc(S(=O)(=O)/N=C2/NC(=O)/C(=C\c3ccco3)S2)cc1` the “activity change, negative = inhibition” value was “inactive”.
`COc1cccc(NCc2cc(=O)oc3cc(C)c(C(C)C)cc23)c1` was tested, and the “activity change, negative = inhibition” value was “inactive”.
With `CC1=C(C(=O)OCc2ccccc2)C(c2cccc([N+](=O)[O-])c2)NC(=O)N1C` (stereo not drawn) the “activity change, negative = inhibition” value was “inactive”.
In the case of `O=c1c(OC2OC(CO)C(O)C(O)C2O)c(-c2ccc(O)c(O)c2)oc2cc(O)cc(O)c12` (stereo not drawn), the “activity change, negative = inhibition” value is reported as “inactive”.
For `O=C(O)c1ccc(N2Cc3ccccc3C2)cc1O`, the “activity change, negative = inhibition” value was “inactive”.
With `O=C(NNC(=O)c1ccccc1[N+](=O)[O-])c1ccco1` the “activity change, negative = inhibition” value was “inactive”.
`CCOC(=O)[C@]1(C#N)[C@@H]2C=CC(C(N)=O)=CN2[C@@H](C(N)=O)[C@@H]1c1ccc(F)cc1` was tested, and the “activity change, negative = inhibition” value was “inactive”.
`COc1ccc(C(=O)C/C(=C\C(=O)c2ccc(C)cc2)c2ccccc2)cc1` was tested, and the “activity change, negative = inhibition” value was “inactive”.
`O=c1[nH]c(=S)n(-c2ccccc2F)c(O)c1C=Nc1ccc(N2CCOCC2)cc1` was tested, and the “activity change, negative = inhibition” value was “inactive”.
With `CS(=O)(=O)Nc1ccc(-c2ccc(/C=C3\SC(N)=NC3=O)o2)cc1` the “activity change, negative = inhibition” value was “inactive”.
`CN1C(=O)/C(=C/c2ccco2)SC1=Nc1cccc(C(=O)O)c1` was tested, and the “activity change, negative = inhibition” value was “inactive”.
In the case of `COc1ccc(OC)c(-n2c(-c3cc(-c4ccco4)[nH]n3)n[nH]c2=S)c1`, the “activity change, negative = inhibition” value is reported as “inactive”.
`S=c1[nH]cnc2sc(Nc3ccccc3)nc12` was tested, and the “activity change, negative = inhibition” value was “inactive”.
In the case of `Cc1cc(C)c2cc3c(N)c(C(=O)N4CCc5ccccc5C4)sc3nc2c1`, the “activity change, negative = inhibition” value is reported as “inactive”.
For `Cc1cc(C)c[n+](-c2nc([O-])sc2C=O)c1`, the “activity change, negative = inhibition” value was “inactive”.
For `Cc1ccc2cc(C#N)c(N3CCCN(C(=O)C4CCCO4)CC3)nc2c1C` (stereo not drawn), the “activity change, negative = inhibition” value was “inactive”.
In the case of `C#CCOCCOCCOCCNc1nc(N2CCN(C(=O)[C@H]([C@@H](C)CC)n3cc([C@@H](N)CO)nn3)CC2)nc(N2CCN(C(=O)[C@H]([C@@H](C)CC)n3cc([C@@H](N)CO)nn3)CC2)n1`, the “activity change, negative = inhibition” value is reported as “inactive”.
With `Cc1cccc(NC(=O)c2sc3nc4c(c(-c5ccco5)c3c2N)CCC4)c1` the “activity change, negative = inhibition” value was “inactive”.
For `O=S(=O)(O)c1nc2ccccc2n1Cc1ccc(Cl)cc1Cl`, the “activity change, negative = inhibition” value was “inactive”.
In the case of `CCOc1cc(/C=N/n2c(C)nc3ccccc3c2=O)ccc1O`, the “activity change, negative = inhibition” value is reported as “inactive”.
With `Cc1cccn2c(=O)c3cc(C(=O)NC(C)C)c(=N)n(Cc4ccncc4)c3nc12` the “activity change, negative = inhibition” value was “inactive”.
With `O=C(O)COc1ccc(Br)cc1C(c1c(C(=O)O)[nH]c2ccccc12)c1c(C(=O)O)[nH]c2ccccc12` the “activity change, negative = inhibition” value was “inactive”.
With `Cc1ccc(S(=O)(=O)c2cc3c(=O)n4ccccc4nc3n(Cc3ccco3)c2=N)cc1C` the “activity change, negative = inhibition” value was “inactive”.
With `Cc1cc(C)c[n+](-c2[nH]c(=O)sc2/C=N/N=C(\N)[S-])c1` the “activity change, negative = inhibition” value was “inactive”.
In the case of `CN(C)c1ccc(N=Cc2nc(-c3ccccc3)oc2OC(=O)c2cccc(Br)c2)cc1`, the “activity change, negative = inhibition” value is reported as “inactive”.
`CCOC(=O)c1cnc2c(N=Nc3ccccc3)c(N)nn2c1N` was tested, and the “activity change, negative = inhibition” value was “inactive”.
For `Oc1[nH]c(N=C2N=c3ccccc3=N2)c2ccccc12`, the “activity change, negative = inhibition” value was “inactive”.
For `O=C1c2cccc3c(Cl)ccc(c23)C(=O)N1O`, the “activity change, negative = inhibition” value was “inactive”.
With `CCC(=O)N(CC)C1=C(O)c2ccccc2C(=O)C1=O` the “activity change, negative = inhibition” value was “inactive”.
For `O=C1N=c2ccccc2=C1c1sc(NS(=O)(=O)c2ccccc2)nc1O`, the “activity change, negative = inhibition” value was “inactive”.
`COc1ccc2nc3ccccc3nc2c1NC(=O)c1ccc(Cl)cc1` was tested, and the “activity change, negative = inhibition” value was “inactive”.
In the case of `CCCOc1ccc(C2=CSC3=NCCN23)cc1[N+](=O)[O-]`, the “activity change, negative = inhibition” value is reported as “inactive”.
`COc1ccc(/C=N/NC(=O)c2ccc(=O)[nH]n2)cc1OC` was tested, and the “activity change, negative = inhibition” value was “inactive”.
For `O=[N+]([O-])c1cc(S(=O)(=O)c2ccc(O)c([N+](=O)[O-])c2)ccc1O`, the “activity change, negative = inhibition” value was “inactive”.
`CSc1nc(N)c(N=Nc2ccc([As](=O)(O)O)cc2)c(=O)[nH]1` was tested, and the “activity change, negative = inhibition” value was “inactive”.
`Nc1c(C(=O)Nc2ccccc2)sc2nc3c(c(-c4ccco4)c12)CCC3` was tested, and the “activity change, negative = inhibition” value was “inactive”.
With `O=C(NNC(=S)NC(=O)c1ccccc1[N+](=O)[O-])c1ccccc1[N+](=O)[O-]` the “activity change, negative = inhibition” value was “inactive”.
`CC1=CC(=C2C(=O)NC(=S)NC2=O)C=C(C(F)(F)F)N1Cc1ccccc1` was tested, and the “activity change, negative = inhibition” value was “inactive”.
For `CC1=CC2=NC(=O)/C(=C\c3cn(C)c4ccccc34)C(=N)N2O1`, the “activity change, negative = inhibition” value was “inactive”.
In the case of `C[n+]1c2ccccc2nc2ccc(NCCO)cc21`, the “activity change, negative = inhibition” value is reported as “inactive”.
`Cc1cc(/C=C(\C#N)c2nc3ccccc3[nH]2)c(C)n1C` was tested, and the “activity change, negative = inhibition” value was “inactive”.
For `CC1=NN(C(N)=S)C(=O)C1N=Nc1ccccc1C` (stereo not drawn), the “activity change, negative = inhibition” value was “inactive”.
In the case of `Cn1c(CNC(=O)c2ccc(F)cc2)cc2ccccc21`, the “activity change, negative = inhibition” value is reported as “inactive”.
For `Cc1ccc(C(=O)N/N=C/c2ccc(-c3ccc(Br)cc3[N+](=O)[O-])o2)o1`, the “activity change, negative = inhibition” value was “inactive”.
For `Cn1ncc2c(NNC(=O)c3ccc(Cl)cc3Cl)ncnc21`, the “activity change, negative = inhibition” value was “inactive”.
`NC(=O)C(=O)N/N=C1\CCc2ccccc21` was tested, and the “activity change, negative = inhibition” value was “inactive”.
With `NC(=O)c1cccc2cc3ccccc3cc12` the “activity change, negative = inhibition” value was “inactive”.
With `O=c1c2ccccc2c(C=Nc2ccc(O)cc2)c(O)n1-c1nccs1` the “activity change, negative = inhibition” value was “inactive”.
For `COc1ccc(/C=C/C(=O)c2cc(Cl)cc(Cl)c2O)c(OC)c1`, the “activity change, negative = inhibition” value was “inactive”.
With `COc1ccccc1OCC(=O)NNC(=O)c1cnccn1` the “activity change, negative = inhibition” value was “inactive”.
In the case of `COc1cccc2cc(-c3nc(-c4cccs4)cs3)c(=O)oc12`, the “activity change, negative = inhibition” value is reported as “inactive”.
`COc1ccc(NC(=O)/C=C/c2cccc(C(F)(F)F)c2)cn1` was tested, and the “activity change, negative = inhibition” value was “inactive”.
`CC1(N2CCOCC2)CC2(O)C(=[N+]1[O-])CCc1c2no[n+]1[O-]` (stereo not drawn) was tested, and the “activity change, negative = inhibition” value was “inactive”.
In the case of `CCOC(=O)C1CSc2[nH]c(=O)sc2C1c1ccccc1` (stereo not drawn), the “activity change, negative = inhibition” value is reported as “inactive”.
`CCN(CC)c1ccc(N2C(=O)c3ccccc3C2=O)cc1` was tested, and the “activity change, negative = inhibition” value was “inactive”.
For `CS(=O)(=O)c1ccccc1C(=O)Nc1cccc2ncccc12`, the “activity change, negative = inhibition” value was “inactive”.
With `Cc1ccc2c(c1Cl)NC(C(=O)O)C1CC(Sc3ccccc3[N+](=O)[O-])C(Cl)C21` (stereo not drawn) the “activity change, negative = inhibition” value was “inactive”.
With `CCCCN(C(=O)C1=COCCO1)c1c(N)n(Cc2ccccc2)c(=O)[nH]c1=O` the “activity change, negative = inhibition” value was “inactive”.
In the case of `CC1CN(c2nc3ccccc3nc2C(C#N)C(=O)NCc2ccc3c(c2)OCO3)CC(C)O1` (stereo not drawn), the “activity change, negative = inhibition” value is reported as “inactive”.
For `Cc1cc([N+](=O)[O-])nn1CC(=O)NNC(=S)Nc1ccc(F)cc1`, the “activity change, negative = inhibition” value was “inactive”.
For `CN(CC(=O)Nc1cccc(F)c1)C(=O)/C=C/c1cn(Cc2ccccc2)nc1-c1cccnc1`, the “activity change, negative = inhibition” value was “inactive”.
In the case of `COC(=O)c1cccc2nc3c(C(C)O)cccc3nc12` (stereo not drawn), the “activity change, negative = inhibition” value is reported as “inactive”.
For `O=C(NNC(=O)c1cc(Cl)ccc1[N+](=O)[O-])c1csc(N2CCOCC2)n1`, the “activity change, negative = inhibition” value was “inactive”.
`CCc1nc2ccccc2c(=O)n1/N=C/c1ccc(OC)cc1` was tested, and the “activity change, negative = inhibition” value was “inactive”.
`Cc1cccc(C(=O)NNc2ncnc3c2cnn3C)c1` was tested, and the “activity change, negative = inhibition” value was “inactive”.
With `O=S1(=O)c2ccccc2N=NN1Cc1ccc(Cl)c(Cl)c1` the “activity change, negative = inhibition” value was “inactive”.
With `CCCc1nc2ccccc2c(=O)n1/N=C/c1ccc(O)c(O)c1` the “activity change, negative = inhibition” value was “inactive”.
In the case of `C=CCn1c(Cc2nc3ccc(Cl)cc3[nH]2)n[nH]c1=S`, the “activity change, negative = inhibition” value is reported as “inactive”.
With `Cc1ccc([C@@H]2C3COCC=C3C(C#N)=C(N)C2(C#N)C#N)o1` (stereo partly drawn) the “activity change, negative = inhibition” value was “inactive”.
In the case of `O=C(O)c1ccc(NC2=C(Cl)C(=O)c3ccccc3C2=O)cc1`, the “activity change, negative = inhibition” value is reported as “inactive”.
For `CCOC(=O)c1c(NS(=O)(=O)c2ccccc2)n(CCCOC)c2nc3ccccc3nc12`, the “activity change, negative = inhibition” value was “inactive”.
